From patent US20250340848A1, “METHODS FOR CHEMICAL REPROGRAMMING AND PLURIPOTENT STEM CELLS” (Peking University, priority 2022, published 2025)

What was measured:
[1] = test system: hADSC; assay: Chemical reprogramming of hADSC per Example 6A, OCT4-positive hCiPSC clones; format: cell-based, human
Experimental: In short, hADSC or hASF are seeded at 1×10^4 cells/well in a 12-well plate, or at 0.5-0.6×10^4 cells/well in a 24-well plate, and cultured overnight. The next day, the medium is replaced with Stage I induction medium (Knockout DMEM supplemented with 2% B27 supplement, 1% KSR, 1% GlutaMAX, 1% NEAA, 1% penicillin-streptomycin, […] Vc2p, 5 mM LiCl, 1 mM NAM, 20 ng/mL BMP4, 5 μM CHIR999021, 10 μM 616452, 2 μM TTNPB, 0.5 μM SAG, 2 μM EPZ5676, 0.05 μM DZNep, 1 μM ruxolitinib, 0.5 μM VTP50469, 1 μM HY-10249A (CAS No. 842148-40-7), 0.2 μM JNKIN8, and 0.2 μM SETD2-IN-1), and cultured under hypoxic conditions (5% 02) until a monolayer of epithelial-like cells appears and reaches approximately 100% confluence. hADSC cells typically require 8-10 days, and hASFs typically require 9-16 days. […]
OCT4 immunofluorescent staining is performed on the obtained hCiPSC clones, with OCT4 positivity serving as an indicator of hCiPSC clones. The reprogramming efficiency of the method is calculated by dividing the number of OCT4-positive clones by the number of initial hADSC or hASFs plated. […]

[2] = test system: cellular retinoic acid binding protein (CRABP); conditions: cited from earlier work

O=C(NNS(=O)(=O)c1ccccc1F)c1cc(F)cc(-c2ccccn2)c1 [WM1119]
transformation efficiency ([1]; 8+4+8 culture method, HATi 0.5 μM in stage I induction medium, FIG. 27A): about 2.4%

CC(C)(C)c1cc(C(=O)/C=C/c2ccc(C(=O)O)cc2)cc(C(C)(C)C)c1 [Ch 55, 4-[(1E)-3-[3,5-bis(1,1-Dimethylethyl)phenyl]-3-oxo-1-propenyl]benzoic acid]
affinity for cellular retinoic acid binding protein (CRABP) [2]: low affinity

CCc1c(C#N)c(SC(C(N)=O)c2ccccc2)nc(N2CCC(N)CC2)c1C#N (stereo not drawn) [GSK3685032]
transformation into pluripotent stem cells vs control ([1]; 6+4+8, added to Stage II induction medium (RA 5 μM, GSK3685032 0.02 μM), FIG. 29): significantly improve the transformation of LIN28A-positive monolayer epithelial-like cells into pluripotent stem cells
